Where a name gives a salt, the structure may show the parent alone.
Target: Active Human ERK2 (hERK2) (Homo sapiens (Human), UniProt P28482)
Assay: Active Human ERK2 (hERK2) Activity Assay (IMAP-FP)
Type: biochemical
Conditions: phosphorylated active hERK2 0.5 nM, 30 μM ATP, 10 point titration, read-out: ERK 2 Human average IC50
Method: Assays Active Human ERK2 (hERK2) Activity Assay:
Activated ERK2 activity was determined in an IMAP-FP assay (Molecular Devices). Using this assay format, the potency (IC50) of each compound was determined from a 10 point (1:3 serial dilution, 3 μM starting compound concentration) titration curve using the following outlined procedure. […] Following a 15 minute compound & enzyme incubation, each reaction was initiated by the addition of 10 μL kinase buffer containing 2.45 μM ERK2 IMAP substrate peptides (2.25 μM-unlabeled peptide and 200 nM-labeled peptide, and 75 μM ATP. The final reaction in each well of 25 μL consists of 0.5 nM hERK2, 900 nM unlabeled peptide, 80 nM labeled-peptide, and 30 μM ATP. Phosphorylation reactions were allowed to proceed for 60 minutes and were immediately quenched by the addition of 60 μL IMAP detection beads (1:1000 dilutions) in IMAP binding buffer (Molecular Devices) with 24 mM NaCl. Plates were read on EnVision reader after 60 minutes binding equilibration using Fluorescence Polarization protocol (Perkin Elmer).

Sequence of Active Human ERK2 (hERK2) (P28482 whole entry): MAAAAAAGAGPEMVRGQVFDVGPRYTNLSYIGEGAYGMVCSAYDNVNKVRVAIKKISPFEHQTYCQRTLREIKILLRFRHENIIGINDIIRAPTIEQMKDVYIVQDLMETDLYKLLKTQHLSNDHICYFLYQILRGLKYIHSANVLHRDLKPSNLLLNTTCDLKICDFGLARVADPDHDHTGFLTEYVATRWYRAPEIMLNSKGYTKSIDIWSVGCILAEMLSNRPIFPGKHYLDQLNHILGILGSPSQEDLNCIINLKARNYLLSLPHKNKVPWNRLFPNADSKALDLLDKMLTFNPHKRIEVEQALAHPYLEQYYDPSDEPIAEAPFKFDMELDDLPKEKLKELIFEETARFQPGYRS

SMILES | IC50 [nM]
Cc1cc(-c2n[nH]c3cc4c(cc23)CN([C@H](C)c2ccc(F)cc2)C(=O)N4)ccn1 [Example 10, (R)-6-(1-(4-fluorophenyl)ethyl)-3-(2-methylpyridin-4-yl)-5,6-dihydro-1H-pyrazolo[4,3-g]quinazolin-7(8H)-one] | 0.3
Cc1cc(-c2n[nH]c3cc4c(cc23)CCN(Cc2ccc(F)cc2)C(=O)N4O)ccn1 [Example 11, 7-(4-fluorobenzyl)-9-hydroxy-3-(2-methylpyridin-4-yl)-5,6,7,9-tetrahydro-[1,3]diazepino[5,4-f]indazol-8(1H)-one] | 459
Cc1cc(-c2n[nH]c3cc4c(cc23)CCN([C@H](C)c2ccc(F)cc2)C(=O)N4)ccn1 [Example 12, (R)-7-(1-(4-fluorophenyl)ethyl)-3-(2-methylpyridin-4-yl)-5,6,7,9-tetrahydro-[1,3]diazepino[5,4-f]indazol-8(1H)-one] | 72
Cc1cc(-c2n[nH]c3cc4c(cc23)CN(Cc2ccccc2)C(=O)N4)ccn1 [Example 14, 6-benzyl-3-(2-methylpyridin-4-yl)-5,6-dihydro-1H-pyrazolo[4,3-g]quinazolin-7(8H)-one] | 0.5
C[C@H](c1ccccc1)n1c(=O)[nH]c2cc3[nH]nc(-c4ccc5nnn(C)c5c4)c3cc2c1=O [Example 15, (R)-3-(1-methyl-1H-benzo[d][1,2,3]triazol-6-yl)-6-(1-phenylethyl)-1H-pyrazolo[4,3-g]quinazoline-5,7(6H,8H)-dione] | 1.7
Cc1cc(-c2n[nH]c3cc4c(cc23)CN(C2CCCOc3ccccc32)C(=O)N4)ccn1 (stereo not shown) [Example 16, 3-(2-methylpyridin-4-yl)-6-(2,3,4,5-tetrahydrobenzo[b]oxepin-5-yl)-5,6-dihydro-1H-pyrazolo[4,3-g]quinazolin-7(8H)-one] | 4.8
COC[C@H](c1ccc(F)cc1)N1Cc2cc3c(-c4ccnc(C)c4)n[nH]c3cc2NC1=O [Example 17] | 0.7
COc1ccccc1CN1Cc2cc3c(-c4ccnc(C)c4)n[nH]c3cc2NC1=O [Example 18, 6-(2-methoxybenzyl)-3-(2-methylpyridin-4-yl)-5,6-dihydro-1H-pyrazolo[4,3-g]quinazolin-7(8H)-one] | 0.8
COc1ccccc1CCN1Cc2cc3c(-c4ccnc(C)c4)n[nH]c3cc2NC1=O [Example 19, 6-(2-methoxyphenethyl)-3-(2-methylpyridin-4-yl)-5,6-dihydro-1H-pyrazolo[4,3-g]quinazolin-7(8H)-one] | 2.3
Cc1cc(-c2n[nH]c3cc4c(cc23)CN([C@H](C)c2ccccc2)C(=O)N4)ccn1 [Example 20, (R)-3-(2-methylpyridin-4-yl)-6-(1-phenylethyl)-5,6-dihydro-1H-pyrazolo[4,3-g]quinazolin-7(8H)-one 2,2,2-trifluoroacetate] | 0.3
Cc1cc(-c2n[nH]c3cc4c(cc23)CN(Cc2cccc(C)n2)C(=O)N4)ccn1 [Example 21, 6-((6-methylpyridin-2-yl)methyl)-3-(2-methylpyridin-4-yl)-5,6-dihydro-1H-pyrazolo[4,3-g]quinazolin-7(8H)-one] | 0.6
Cc1cc(-c2n[nH]c3cc4c(cc23)CN([C@@H]2CCCCc3ccccc32)C(=O)N4)ccn1 [Example 22, (R)-3-(2-methylpyridin-4-yl)-6-(6,7,8,9-tetrahydro-5H-benzo[7]annulen-5-yl)-5,6-dihydro-1H-pyrazolo[4,3-g]quinazolin-7(8H)-one] | 24
Cc1cc(-c2n[nH]c3cc4[nH]c(=O)n([C@H](C)c5ccccc5)c(=O)c4cc23)ccn1 [Example 23, (R)-3-(2-methylpyridin-4-yl)-6-(1-phenylethyl)-1H-pyrazolo[4,3-g]quinazoline-5,7(6H,8H)-dione] | 3.7
C[C@H](c1ccccc1)N1Cc2cc3c(-c4ccc(C#N)nc4)n[nH]c3cc2NC1=O [Example 27, (R)-5-(7-oxo-6-(1-phenylethyl)-5,6,7,8-tetrahydro-1H-pyrazolo[4,3-g]quinazolin-3-yl)picolinonitrile] | 10
CC(=O)Nc1n[nH]c2cc3c(cc12)CN([C@H](C)c1ccccc1)C(=O)N3 [Example 34, (R)-N-(7-oxo-6-(1-phenylethyl)-5,6,7,8-tetrahydro-1H-pyrazolo[4,3-g]quinazolin-3-yl)acetamide] | 2.3
COc1n[nH]c2cc3c(cc12)CN([C@H](C)c1ccccc1)C(=O)N3 [Example 35, (R)-3-methoxy-6-(1-phenylethyl)-5,6-dihydro-1H-pyrazolo[4,3-g]quinazolin-7(8H)-one] | 114
COCCOc1n[nH]c2cc3c(cc12)CN([C@H](C)c1ccccc1)C(=O)N3 [Example 36, (R)-3-(2-methoxyethoxy)-6-(1-phenylethyl)-5,6-dihydro-1H-pyrazolo[4,3-g]quinazolin-7(8H)-one] | 6.4
C[C@H](c1ccccc1)N1Cc2cc3c(OCCO)n[nH]c3cc2NC1=O [Example 37, (R)-3-(2-hydroxyethoxy)-6-(1-phenylethyl)-5,6-dihydro-1H-pyrazolo[4,3-g]quinazolin-7(8H)-one] | 20
C[C@H](c1ccccc1)N1Cc2cc3c(OC4CCOC4)n[nH]c3cc2NC1=O (stereo partly drawn) [Example 38, 6-((R)-1-phenylethyl)-3-((tetrahydrofuran-3-yl)oxy)-5,6-dihydro-1H-pyrazolo[4,3-g]quinazolin-7(8H)-one] | 21

Now from value to compound:

IC50 [nM] | SMILES
0.3 | Cn1cc(-c2n[nH]c3cc4[nH]c(=O)ccc4cc23)cn1 [Example 4, 3-(1-methyl-1H-pyrazol-4-yl)-1,8-dihydro-7H-pyrazolo[4,3-g]quinolin-7-one]
228 | O=c1ccc2cc3cn[nH]c3cc2[nH]1 [Example 5, 1,8-dihydro-7H-pyrazolo[4,3-g]quinolin-7-one]
0.3 | Cn1cc(-c2n[nH]c3cc4[nH]c(=O)c(Br)cc4cc23)cn1 [Example 6, 6-bromo-3-(1-methyl-1H-pyrazol-4-yl)-1,8-dihydro-7H-pyrazolo[4,3-g]quinolin-7-one trifluoroacetate]
0.3 | Cn1cc(-c2n[nH]c3cc4[nH]c(=O)c(Cc5ccccc5)cc4cc23)cn1 [Example 7, 6-benzyl-3-(1-methyl-1H-pyrazol-4-yl)-1,8-dihydro-7H-pyrazolo[4,3-g]quinolin-7-one]
252 | Cc1cc(-c2n[nH]c3cc4c(cc23)CCCC(=O)N4)ccn1 [Example 9, 3-(2-methylpyridin-4-yl)-5,6,7,9-tetrahydroazepino[3,2-f]indazol-8(1H)-one]
0.6 | Cc1cc(-c2n[nH]c3cc4c(cc23)CNC(=O)N4)ccn1 [Example 13, 3-(2-methylpyridin-4-yl)-5,6-dihydro-1H-pyrazolo[4,3-g]quinazolin-7(8H)-one]
12 | O=c1ccc2cc3c(N4CCOCC4)n[nH]c3cc2[nH]1 [Example 24, 3-morpholino-1H-pyrazolo[4,3-g]quinolin-7(8H)-one]
42 | O=c1ccc2cc3c(N4CCCCC4)n[nH]c3cc2[nH]1 [Example 25, 3-(piperidin-1-yl)-1H-pyrazolo[4,3-g]quinolin-7(8H)-one]
0.6 | COc1ncc(-c2n[nH]c3cc4c(cc23)CN([C@H](C)c2ccccc2)C(=O)N4)cn1 [Example 28, (R)-3-(2-methoxypyrimidin-5-yl)-6-(1-phenylethyl)-5,6-dihydro-1H-pyrazolo[4,3-g]quinazolin-7(8H)-one formate]

— patent US10065967B2, “Compounds that are ERK inhibitors” (Merck Sharp & Dohme Corp., priority 2013, dated 2018)
